# Source: PMC11187625, “New Labeled PET Analogues Enable the Functional Screening and Characterization of PET-Degrading Enzymes” (ACS Sustainable Chemistry & Engineering, 2024)
# Test system: T1, A. niger lipase
# T1 construct: commercial preparation, Fluka Analytical
# Experiment: fluorescence, 4-mU release
# Type: biochemical, Aspergillus niger
# Settings: 0.1 M phosphate pH 7, 30 °C, 5% DMSO
# Text: fluorescence, 4-mU release on A. niger lipase
row,Km [nM],SMILES
1,1000 ± 100,"CCOCCOC(=O)c1ccc(C(=O)Oc2ccc3c(C)cc(=O)oc3c2)cc1 [B, 2-Ethoxyethyl (4-Methyl-2-oxo-2H-chromen-7-yl) Terephthalate]"
2,600 ± 100,"COC(=O)c1ccc(C(=O)OCCOC(=O)c2ccc(C(=O)Oc3ccc4c(C)cc(=O)oc4c3)cc2)cc1 [C, 2-((4-(Methoxycarbonyl)benzoyl)oxy)ethyl (4-Methyl-2-oxo-2H-chromen-7-yl) Terephthalate]"
3,5700 ± 500,"COC(=O)c1ccc(C(=O)Oc2ccc3c(C)cc(=O)oc3c2)cc1 [A, Methyl (4-Methyl-2-oxo-2H-chromen-7-yl) Terephthalate]"
